Reference: patent publication US20240208934A1, “ULK1/2 INHIBITORS AND THEIR USE THEREOF” (LifeArc, priority 2021, published 2024)

Tested on: ULK
Experiment: ULK radiometric assay (33P incorporation onto MBP substrate, glass fiber capture filter)
Conditions: ULK Biochemical activity; 20 uM ATP, 0.2 mg/mL MBP; averages of at least two independent experiments
Protocol: ULK activity was measured using a radiometric assay, to measure the incorporation of radiolabelled ^33P onto MBP substrate using a glass fiber capture filter method. Reaction conditions were 0.2 mg/mL MBP, 20 uM ATP (0.25 μCi/well), 50 mM Tris HCl, pH7.5, 10 mM MgCl2, 0.1% beta-mercaptoethanol, 0.1 mM EGTA, 0.01% BSA. Ten point Half log Compound dilution series were prepared in 100% DMSO and added to the reaction to give final assay concentration of 10% DMSO. Compounds were tested in duplicate and values normalized to 10% DMSO only controls. The data were fitted to a four parameter fit equation and the IC50 values shown are averages of at least two independent experiments.

IC50 [µM] | SMILES
< 0.2 | O=C(CCNc1nc(Nc2ccc3c(c2)CCNC3)ncc1C(F)(F)F)N1CCOCC1 [Example 67, 1-Morpholino-3-[[2-(1,2,3,4-tetrahydroisoquinolin-6-ylamino)-5-(trifluoromethyl)pyrimidin-4-yl]amino]propan-1-one]
≥ 1 | COc1cc2c(cc1Nc1ncc(C(F)(F)F)c(NC3CCN(C(C)=O)CC3)n1)CNCC2 [Example 68, 1-[4-[[2-[(6-Methoxy-1,2,3,4-tetrahydroisoquinolin-7-yl)amino]-5-(trifluoromethyl)pyrimidin-4-yl]amino]-1-piperidyl]ethanone]
≥ 1 | CCN(CC)C(=O)C1CCCN(c2nc(Nc3cc4c(cc3OC)CCNC4)ncc2C(F)(F)F)C1 (centres unmarked) [Example 69, N,N-diethyl-1-[2-[(6-methoxy-1,2,3,4-tetrahydroisoquinolin-7-yl)amino]-5-(trifluoromethyl)pyrimidin-4-yl]piperidine-3-carboxamide]
0.2 to 1 | COc1cc2c(cc1Nc1ncc(C(F)(F)F)c(NCCCn3ccnc3)n1)CNCC2 [Example 70, N4-(3-imidazol-1-ylpropyl)-N2-(6-methoxy-1,2,3,4-tetrahydroisoquinolin-7-yl)-5-(trifluoromethyl)pyrimidine-2,4-diamine]
≥ 1 | COc1cc2c(cc1Nc1ncc(C(F)(F)F)c(N3CCC(NC(C)=O)CC3)n1)CNCC2 [Example 71, N-[1-[2-[(6-methoxy-1,2,3,4-tetrahydroisoquinolin-7-yl)amino]-5-(trifluoromethyl)pyrimidin-4-yl]-4-piperidyl]acetamide]
≥ 1 | COc1cc2c(cc1Nc1ncc(C(F)(F)F)c(NC3CCN(S(C)(=O)=O)CC3)n1)CNCC2 [Example 72, N2-(6-methoxy-1,2,3,4-tetrahydroisoquinolin-7-yl)-N4-(1-methylsulfonyl-4-piperidyl)-5-(trifluoromethyl)pyrimidine-2,4-diamine]
≥ 1 | COc1cc2c(cc1Nc1ncc(C(F)(F)F)c(NCCCn3cccn3)n1)CNCC2 [Example 73, N2-(6-methoxy-1,2,3,4-tetrahydroisoquinolin-7-yl)-N4-(3-pyrazol-1-ylpropyl)-5-(trifluoromethyl)pyrimidine-2,4-diamine]
≥ 1 | COc1cc2c(cc1Nc1ncc(C3CC3)c(NCCCNC(=O)C3CCC3)n1)CNCC2 [Example 74, N-[3-[[5-cyclopropyl-2-[(6-methoxy-1,2,3,4-tetrahydroisoquinolin-7-yl)amino]pyrimidin-4-yl]amino]propyl]cyclobutanecarboxamide]
0.2 to 1 | COc1cc2c(cc1Nc1ncc(C3CC3)c(NCCCN3CCCCC3=O)n1)CNCC2 [Example 75, 1-[3-[[5-Cyclopropyl-2-[(6-methoxy-1,2,3,4-tetrahydroisoquinolin-7-yl)amino]pyrimidin-4-yl]amino]propyl]piperidin-2-one]
< 0.2 | CN1CCc2cc(Nc3ncc(C(F)(F)F)c(NCCCN4CCCC4=O)n3)ccc2C1 [Example 76, 1-[3-[[2-[(2-Methyl-3,4-dihydro-1H-isoquinolin-6-yl)amino]-5-(trifluoromethyl)pyrimidin-4-yl]amino]propyl]pyrrolidin-2-one]
≥ 1 | O=C1CCCN1CCCNc1nc(Nc2ccc3c(c2)CNCC3)ncc1C(F)(F)F [Example 77, 1-[3-[[2-(1,2,3,4-Tetrahydroisoquinolin-7-ylamino)-5-(trifluoromethyl)pyrimidin-4-yl]amino]propyl]pyrrolidin-2-one]
0.2 to 1 | COc1cc2c(cc1Nc1ncc(C(F)(F)F)c(NCC3CNCCO3)n1)CNCC2 (centres unmarked) [Example 78, N2-(6-methoxy-1,2,3,4-tetrahydroisoquinolin-7-yl)-N4-(morpholin-2-ylmethyl)-5-(trifluoromethyl)pyrimidine-2,4-diamine]
0.2 to 1 | COc1cc2c(cc1Nc1ncc(C(F)(F)F)c(NCCC(=O)N3CCOCC3)n1)CNCC2 [Example 79, 3-[[2-[(6-Methoxy-1,2,3,4-tetrahydroisoquinolin-7-yl)amino]-5-(trifluoromethyl)pyrimidin-4-yl]amino]-1-morpholino-propan-1-one]
0.2 to 1 | O=C(CCNc1nc(Nc2cccc(OC3CCNCC3)c2)ncc1C(F)(F)F)N1CCOCC1 [Example 80, 1-Morpholino-3-[[2-[3-(4-piperidyloxy)anilino]-5-(trifluoromethyl)pyrimidin-4-yl]amino]propan-1-one]
< 0.2 | COc1cc2c(cc1Nc1ncc(C(F)(F)F)c(NCCCN3CCCC3=O)n1)CNCC2 [Example 81, 1-[3-[[2-[(6-Methoxy-1,2,3,4-tetrahydroisoquinolin-7-yl)amino]-5-(trifluoromethyl)pyrimidin-4-yl]amino]propyl]pyrrolidin-2-one]
< 0.2 | COc1cc2c(cc1Nc1ncc(C(F)(F)F)c(NCCCNC(=O)C3CCC3)n1)CNCC2 [Example 82, N-[3-[[2-[(6-methoxy-1,2,3,4-tetrahydroisoquinolin-7-yl)amino]-5-(trifluoromethyl)pyrimidin-4-yl]amino]propyl]cyclobutanecarboxamide]
< 0.2 | O=C1CCCCN1CCCNc1nc(Nc2ccc3c(c2)CNCC3)ncc1C(F)(F)F [Example 83, 1-[3-[[2-(1,2,3,4-Tetrahydroisoquinolin-7-ylamino)-5-(trifluoromethyl)pyrimidin-4-yl]amino]propyl]piperidin-2-one]
≥ 1 | CN(C)CCCNc1nc(Nc2cccc(OC3CCN(C)CC3)c2)ncc1C1CC1 [Example 84, 5-Cyclopropyl-N4-(3-(dimethylamino)propyl)-N2-(3-(1-methylpiperidin-4-yloxy)phenyl)pyrimidine-2,4-diamine]
< 0.2 | FC(F)(F)c1cnc(Nc2cnn(C3CCNC3)c2)nc1NCc1cc[nH]n1 (centres unmarked) [Example 85, N4-(1H-pyrazol-3-ylmethyl)-N2-(1-pyrrolidin-3-ylpyrazol-4-yl)-5-(trifluoromethyl)pyrimidine-2,4-diamine]
0.2 to 1 | FC(F)(F)c1cnc(Nc2ccc(CCN3CCCC3)cc2)nc1NCc1cc[nH]n1 [Example 86, N4-(1H-pyrazol-3-ylmethyl)-N2-[4-(2-pyrrolidin-1-ylethyl)phenyl]-5-(trifluoromethyl)pyrimidine-2,4-diamine]
0.2 to 1 | FC(F)(F)c1cnc(Nc2ccc(N3CCOCC3)cc2)nc1NCC1CCNC1 (centres unmarked) [Example 87, N2-(4-morpholinophenyl)-N4-(pyrrolidin-3-ylmethyl)-5-(trifluoromethyl)pyrimidine-2,4-diamine]
0.2 to 1 | N[C@H]1CC[C@H](Nc2nc(Nc3ccc(N4CCOCC4)cc3)ncc2C(F)(F)F)CC1 [Example 88, N4-(4-aminocyclohexyl)-N2-(4-morpholinophenyl)-5-(trifluoromethyl)pyrimidine-2,4-diamine]
0.2 to 1 | FC(F)(F)c1cnc(Nc2ccc(N3CCOCC3)cc2)nc1NCCC1CCNCC1 [Example 89, N2-(4-morpholinophenyl)-N4-[2-(4-piperidyl)ethyl]-5-(trifluoromethyl)pyrimidine-2,4-diamine]
0.2 to 1 | FC(F)(F)c1cnc(Nc2ccc(N3CCOCC3)cc2)nc1NCC1CNCCO1 (centres unmarked) [Example 90, N2-(4-morpholinophenyl)-N4-(morpholin-2-ylmethyl)-5-(trifluoromethyl)pyrimidine-2,4-diamine]
0.2 to 1 | FC(F)(F)c1cnc(Nc2ccc(N3CCOCC3)cc2)nc1NCCc1c[nH]cn1 [Example 91, N4-[2-(1H-imidazol-4-yl)ethyl]-N2-(4-morpholinophenyl)-5-(trifluoromethyl)pyrimidine-2,4-diamine]
≥ 1 | FC(F)(F)c1cnc(Nc2ccc(N3CCOCC3)cc2)nc1NCc1cn[nH]c1 [Example 92, N2-(4-morpholinophenyl)-N4-(1H-pyrazol-4-ylmethyl)-5-(trifluoromethyl)pyrimidine-2,4-diamine]
